Reference: patent US6984659B2, “2-pyrrolidinone derivatives substituted at position 4 for reducing the extracellular glutamate level” (priority 1997, dated 2006)
Where “and” joins values, the source holds several entries; their conditions need not be identical. Equal entries are not always repeated.

Assays:
[1] = system: extracellular glutamate level; experiment: superfusion experiments on rat brain slices (striatum), glutamate in superfusate by HPLC; format: cell-based
Experimental: A solution of gabapentin (100 μM) in physiological buffer (composition below) with a pH of 7.4 was prepared and irradiated with ultraviolet light (260 and 330 nanometers) at 37° C. for two hours. As described in Kearney A. S. et al., International Journal of Pharmaceutics, 78 (1992), 25–34, this slowly produces the lactam 8-azaspiro[5,4]decan-9-one. Because of the slow reaction rate, a yield of about 1% is assumed in accordance with Kearney et al. (1992), which corresponds to a 1 μM solution.
The activity of this solution in reducing the extracellular glutamate level was shown by means of superfusion experiments on rat brain slices. Slices with a thickness of 350 μm from the rat striatum were used for this. In each case, two slices were employed in a superfusion chamber with an extremely small dead volume, about 100 μl. Physiological buffer (concentrations in mM: NaCl 121, KCl 1.8, CaCl2, 1.3, MgSO4 1.2, NaHCO3 25, […] 1.2, glucose 11, pH 7.4, 95% O2/5% CO2-saturated) is then passed over them at 37° C. After a preliminary perfusion, which serves in particular to remove tissue particles and amino acids released by the injury to the tissue, superfusate fractions are collected at a flow rate of 400 to 800 μl every five minutes. […] The superfusates obtained are filtered (0.45 μm pore size) and the amino acid concentrations are determined by HPLC. […]

[2] = system: potassium-evoked release of [^3H]-noradrenaline; experiment: potassium-evoked release of [^3H]-noradrenaline from human neocortical slices (superfusion); format: cell-based; details: human neocortex slices
Description: The effects of GBP and GBP-L were compared by a very similar approach using rat and human neocortical slices.
Note that the deviations indicate confidence intervals (CI95), not standard errors.

[3] = system: neuronal intranuclear inclusions; experiment: mouse model of Huntington's disease, immunohistochemistry of ubiquitinated neuronal intranuclear inclusions; format: in vivo; details: for mean hippocampal areas of neuronal intranuclear inclusions / mean neocortical areas of neuronal intranuclear inclusions / mean striatal areas of neuronal intranuclear inclusions: per individual mouse, 100 mg/kg*day, frozen brain sections, 100 mg/kg
Description: Mice transgenic for exon 1 of the human HD gene (line R 6/2), carrying CAGn=115-156 expansions, develop pronounced neuronal intranuclear inclusions, containing the proteins huntington and ubiquitin prior to the characteristic neurological phenotype with bradykinesia and seizures corresponding to the juvenile type of HD (Davies et al. 1997). The life time of these mice is up to 17 weeks. It was investigated whether gabapentin (GBP) and its derivative gabapentin-lactam (GBP-L, Jehle et al. 2000), may exert neuroprotective effects by using a battery of behavioral tests selected to measure motor aspects of fore-and hindlimb coordination and balance. In a first series of experiments mice were treated with GBP-L (100 mg/kg*day, 8 mice) and vehicle only (B mice) from the 6th week of their life until death using Alzet pumps implanted subcutaneously and delivering the test compounds systemically and continuously for up to four weeks. Empty Alzet pumps were repeatedly replaced. Animals were tested twice weekly by walking on a balance beam (width: 5 and 14 mm, Carter et al. 1999) up to week 15.5. A second series of experiments involved mice again treated with GBP-L (100 mg/kg*clay, 7 mice) and mice treated with GBP (100 mg/kg*day, 8 mice) from the 6th week of their life until death with week 17 being the maximum endpoint. In addition, immunohistochemical studies, using a monoclonal mouse antibody raised against ubiquitin, were done to analyse areas of ubiquitinated nuclear inclusions in three brain regions (hippocampus, neocortex and striatum) in a blinded fashion in order to compare mice treated with GBP-L or GBP.
Three mice per group were evaluated. The mean regional area of neuronal intranuclear inclusions was calculated (μm^2) for each mouse. These means were compared between regions and between treatment groups.

[4] = system: electrically evoked release of [^3H]-NA; experiment: electrically evoked release of [^3H]-NA from human brain slices; format: cell-based; details: quasi-physiological release
Description: Note that the deviations indicate confidence intervals (CI95), not standard errors. In this model, GBP and its lactam seem equipotent. GBP and GBP-L are ineffective on the quasi-physiological, electrically evoked release of [^3H]-NA from both rat and human brain slices (not shown).

| Compound | difference in glutamate between treated and comparative samples ([1]; gabapentin solution (100 μM) not irradiated, no lactam) | K^+-evoked [^3H]-NA release (in words) [2] | mean hippocampal areas of neuronal intranuclear inclusions [3] | mean neocortical areas of neuronal intranuclear inclusions [3] | mean striatal areas of neuronal intranuclear inclusions [3] | electrically evoked release of [^3H]-NA (in words) [4] | extracellular glutamate concentration found in superfusate ([1]; rat striatum slices flushed with approximately 1 μM solution, control tests 0.24 μM) [µM] | area of neuronal intranuclear inclusions in hippocampus, striatum and neocortex compared to GBP mice (in words) ([3]; three mice per group) |
| --- | --- | --- | --- | --- | --- | --- | --- | --- |
| NCC1(CC(=O)O)CCCCC1 [GBP, gabapentin, reference compound] | no difference could be found | inhibited similarly | 8.78 μm^2 and 8.93 μm^2 and 8.26 μm^2 | 5.91 μm^2 and 5.94 μm^2 and 9.60 μm^2 | 6.43 μm^2 and 7.27 μm^2 and 3.84 μm^2 | ineffective |  |  |
| O=C1CC2(CCCCC2)CN1 [GBP-L, 8-azaspiro[5,4]decan-9-one] |  | inhibited similarly | 4.47 μm^2 and 4.01 μm^2 and 3.61 μm^2 | 3.70 μm^2 and 2.96 μm^2 and 2.65 μm^2 | 3.52 μm^2 and 4.20 μm^2 and 3.83 μm^2 | ineffective | 0.12 | markedly and significantly reduced |
